How the values were obtained:
Assay type in all cases: in vivo
[1] = system: Alopecurus myosuroides (ALOMY); assay: Pre-emergence biological efficacy, glasshouse pot test; settings: 312 h, pre-emergence, 1,000 g/ha, evaluated after 13 days (100=total damage; 0=no damage), read-out: Percentage damage ALOMY
Method in brief: (§1)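 Glasshouse pot test: spray on soil one day after sowing, 1000 or 250 g/ha. Conditions 24/16 °C day/night, 14 h light, 65% humidity. Plant damage scored 0–100 at 13 days.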

[2] = system: Amaranthus retoflexus (AMARE); assay: as above; settings: Amaranthus retroflexus, 312 h; pre-emergence, 1,000 g/ha, evaluated after 13 days (100=total damage; 0=no damage); read-out: Percentage damage AMARE
Method in brief: as §1

[3] = system: Echinochloa crus-galli (ECHCG); assay: as above; settings: 312 h, pre-emergence, 1,000 g/ha, evaluated after 13 days (100=total damage; 0=no damage), read-out: Percentage damage ECHCG
Method in brief: as §1

[4] = system: Ipomea hederaceae (IPOHE); assay: as above; settings: Ipomoea hederacea, 312 h; pre-emergence, 1,000 g/ha, evaluated after 13 days (100=total damage; 0=no damage); read-out: Percentage damage IPOHE
Method in brief: as §1

Setaria faberi (SETFA) [5] = assay: as above; settings: 312 h, pre-emergence, 1,000 g/ha, evaluated after 13 days (100=total damage; 0=no damage), read-out: Percentage damage SETFA
Method in brief: as §1

Solanum nigrum (SOLNI) [6] = assay: as above; settings: 312 h, pre-emergence, 1,000 g/ha, evaluated after 13 days (100=total damage; 0=no damage), read-out: Percentage damage SOLNI
Method in brief: as §1

[7] = system: Alopecurus myosuroides (ALOMY); assay: Post-emergence biological efficacy, glasshouse pot test; settings: 312 h, post-emergence, 1,000 g/ha, evaluated after 13 days (100=total damage; 0=no damage), read-out: Percentage damage caused to weed species, ALOMY
Method in brief: (§2)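 Pot-grown weeds were sprayed 8 days after sowing with test compound in acetone/water (50:50) with 0.5% Tween 20 at 1000 or 250 g/ha. Glasshouse at 24/16° C day/night, 14 h light, 65% humidity. Damage scored 0-100 (100 = total damage) after 13 days.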

[8] = system: Amaranthus retoflexus (AMARE); assay: as above; settings: Amaranthus retroflexus, 312 h; post-emergence, 1,000 g/ha, evaluated after 13 days (100=total damage; 0=no damage); read-out: Percentage damage caused to weed species, AMARE
Method in brief: as §2

[9] = system: Echinochloa crus-galli (ECHCG); assay: as above; settings: 312 h, post-emergence, 1,000 g/ha, evaluated after 13 days (100=total damage; 0=no damage), read-out: Percentage damage caused to weed species, ECHCG
Method in brief: as §2

[10] = system: Ipomea hederaceae (IPOHE); assay: as above; settings: Ipomoea hederacea, 312 h; post-emergence, 1,000 g/ha, evaluated after 13 days (100=total damage; 0=no damage); read-out: Percentage damage caused to weed species, IPOHE
Method in brief: as §2

Setaria faberi (SETFA) [11] = assay: as above; settings: 312 h, post-emergence, 1,000 g/ha, evaluated after 13 days (100=total damage; 0=no damage), read-out: Percentage damage caused to weed species, SETFA
Method in brief: as §2

Solanum nigrum (SOLNI) [12] = assay: as above; settings: 312 h, post-emergence, 1,000 g/ha, evaluated after 13 days (100=total damage; 0=no damage), read-out: Percentage damage caused to weed species, SOLNI
Method in brief: as §2

| SMILES | pest or weed control at 1000 g/ha [1] [%] | pest or weed control at 1000 g/ha [2] [%] | pest or weed control at 1000 g/ha [3] [%] | pest or weed control at 1000 g/ha [4] [%] | pest or weed control at 1000 g/ha (Setaria faberi (SETFA) [5]) [%] | pest or weed control at 1000 g/ha (Solanum nigrum (SOLNI) [6]) [%] | pest or weed control at 1000 g/ha [7] [%] | pest or weed control at 1000 g/ha [8] [%] | pest or weed control at 1000 g/ha [9] [%] | pest or weed control at 1000 g/ha [10] [%] | pest or weed control at 1000 g/ha (Setaria faberi (SETFA) [11]) [%] | pest or weed control at 1000 g/ha (Solanum nigrum (SOLNI) [12]) [%] |
| --- | --- | --- | --- | --- | --- | --- | --- | --- | --- | --- | --- | --- |
| COC(=O)c1nc(C2CC2)nc(NCC2(O)CCCCC2)c1Cl [Compound 4-50, 5-Chloro-2-cyclopropyl-4-[(1-hydroxycyclohex-1-yl)methylamino]-6-methoxycarbonyl-pyrimidine] | 10 | 100 | 10 | 100 | 10 | 100 | 10 | 100 | 10 | 70 | 50 | 80 |
| COC(=O)c1nc(C2CC2)nc(NCC2CCC(C#N)CC2)c1Cl (stereo not drawn) [Compound 4-51, 5-Chloro-4-[(4-cyanocyclohexyl)methylamino]-2-cyclopropyl-6-methoxycarbonyl-pyrimidine] | 0 | 30 | 0 | 50 | 0 | 10 | 10 | 50 | 20 | 60 | 50 | 50 |
| COC(=O)c1nc(C2CC2)nc(NCC2CCCCCCC2)c1Cl [Compound 4-52, 5-Chloro-4-cyclooctylmethyl-amino-2-cyclo-propyl-6-methoxy-carbonylpyrimidine] | 0 | 40 | 0 | 0 | 0 | 30 | 0 | 30 | 20 | 50 | 20 | 60 |
| COC(=O)c1nc(C2CC2)nc(NCC2CCCO2)c1Cl (stereo not drawn) [Compound 4-53, 5-Chloro-2-cyclopropyl-6-methoxy carbonyl-4-(tetrahydrofuran-2-ylmethylamino)-pyrimidine] | 10 | 60 | 0 | 60 | 0 | 40 | 20 | 100 | 30 | 100 | 40 | 90 |
| COC(=O)c1nc(C2CC2)nc(NCC2(OC)C=CC(OC)O2)c1Cl (stereo not drawn) [Compound 4-55, 5-Chloro-2-cyclopropyl-4-[(2,5-dihydro-2,5-dimethoxy-furan-2-yl)methylamino]-6-methoxycarbonyl-pyrimidine] | 0 | 100 | 0 | 60 | 0 | 10 | 10 | 100 | 0 | 50 | 30 | 80 |
| COC(=O)c1nc(C2CC2)nc(NCC2CCC=CO2)c1Cl (stereo not drawn) [Compound 4-56, 5-Chloro-2-cyclopropyl-4-[(3,4-dihydro-2H-pyran-2-yl)methylamino]-6-methoxy-carbonylpyrimidine] | 40 | 100 | 30 | 100 | 20 | 90 | 20 | 100 | 30 | 80 | 40 | 80 |
| COC(=O)c1nc(C2CC2)nc(NCC2CCN(OC(=O)C(C)(C)C)CC2)c1Cl [Compound 4-58] | 0 | 80 | 0 | 20 | 0 | 30 | 0 | 70 | 40 | 50 | 50 | 70 |
| COC(=O)c1nc(C2CC2)nc(NCC2(O)CCc3ccc(OC)cc32)c1Cl (stereo not drawn) [Compound 4-59, 5-Chloro-2-cyclopropyl-4-[(1-hydroxy-6-methoxyindan-1-yl)methylamino]-6-methoxycarbonyl-pyrimidine] | 20 | 80 | 40 | 80 | 10 | 80 | 50 | 100 | 60 | 100 | 80 | 100 |
| COC(=O)c1nc(C2CC2)nc(NCc2ccccc2)c1Cl [Compound 4-60, 5-chloro-2-cyclopropyl-6-methoxycarbonyl-4-phenylmethylaminopyrimidine] | 0 | 60 | 0 | 60 | 30 | 50 | 20 | 100 | 90 | 100 | 90 | 100 |
| COC(=O)c1nc(C2CC2)nc(NCc2cccc(Cl)c2)c1Cl [Compound 4-62] | 10 | 100 | 20 | 60 | 10 | 90 | 30 | 100 | 70 | 100 | 90 | 100 |
| COC(=O)c1nc(C2CC2)nc(NCc2ccc(Cl)cc2)c1Cl [Compound 4-63, 5-Chloro-4-(4-chlorophenylmethyl-amino)-2-cyclopropyl-6-methoxycarbonyl-pyrimidine] | 20 | 60 | 20 | 60 | 20 | 60 | 40 | 100 | 50 | 80 | 80 | 90 |
| COC(=O)c1nc(C2CC2)nc(NCc2cccc(F)c2)c1Cl [Compound 4-65, 5-Chloro-2-cyclopropyl-4-(3-fluorophenylmethyl-amino)-6-methoxycarbonyl-pyrimidine] | 20 | 80 | 60 | 70 | 40 | 80 | 20 | 100 | 80 | 100 | 100 | 100 |

From patent US20110086759A1, “CHEMICAL COMPOUNDS” (SYNGENTA CROP PROTECTION, INC., priority 2007, published 2011)
